Data taken from patent US20110059885A1, “TREATMENT OF DISEASES AND CONDITIONS MEDIATED BY EICOSANOIDS” (Natural Environment Research Council, priority 2008, published 2011).

How the values were obtained:
[1] = Competitive enzyme immunoassay (EIA) for 12(S)-HETE binding; conditions: for proportion of 12(S)-HETE bound: 634 molar excess OmCI to 12(S)-HETE, 12500 pg/mL 12(S)-HETE (FIG. 5)
Procedure: Competitive enzyme immunoassays (EIAs) from Assay Designs Inc. are available for the quantification of a number of the eicosanoids. One such EIA kit uses a polyclonal antibody to 12(S)-HETE to bind 12(S)-HETE labelled with alkaline phosphatase and competing unlabelled 12(S)-HETE in the sample or standards of known concentration. After simultaneous incubation at room temperature and capture of the antibody on the plate, the excess reagents are washed away, the substrate added and reaction measured by microplate reader. The higher the concentration of 12(S)-HETE in sample or standard the lower the absorbance reading, because the unlabelled fatty acid competes for binding with the alkaline phosphatase labelled molecule.
12(S)-HETE EIA Kit was from Assay Designs (Cat. No. 900-050). OmCI stocks used were expressed either in yeast (yOmCI) or bacteria (bOmCI). Both stocks were ≧98% pure, 8.3 mg/mL in phosphate buffered saline pH 7.2 (PBS). The negative control tick histamine binding protein RaHBP2, which is also a lipocalin (Paesen et al., 1999), was expressed in bacteria and was also ≧98% pure, 8.3 mg/mL in PBS. 12(S)-HETE standard was diluted to 50000, 12500, 3125, 781, 195 pg/mL in the assay buffer supplied with the kit. 100 μl of the 12500, 3125 and 0 pg/mL solutions were mixed with ≦9 μl of phosphate buffered saline pH 7.2 (PBS) or solutions of OmCI or RaHBP2 in PBS. The mixtures were incubated at room temperature for 20 minutes then used in the 12(S)-HETE immunoassay in accordance with the manufacturers instructions. The absorbance readings of the treated samples were compared with a standard curve to estimate the concentration of 12(S)-HETE available in solution for binding by the anti-12(S)-HETE polyclonal antibody.
Similar methods to those described in Example 1 were used.

[2] = Competitive EIA for thromboxane B2 binding
Procedure: (§1) 100 μl of the standard solutions were mixed with ≦90 of PBS or diluted stock solutions of OmCI or RaHBP2. The mixtures were incubated at room temperature for 20 minutes then used in the immunoassays in accordance with the manufacturers instructions. The absorbance readings of the treated samples were compared with a standard curve to estimate the concentration of eicosanoids available in solution for binding by the anti-eicosanoid polyclonal antibodies.

[3] = Competitive EIA for cysteinyl leukotriene binding; conditions: data not shown
Procedure: as §1

[4] = Competitive EIA for LTB4 with unlabelled LTB4; assay type: binding; conditions: 750 pg/mL LTB4 added (FIG. 7)
Procedure: as §1

[5] = LTB4 EIA using only LTB4-AP conjugate as ligand; assay type: binding; conditions: for comparison of LTB4-AP binding by yOmCI and bOmCI: equivalent concentrations (FIG. 9)
Procedure: as §1

[6] = LTB4 binding by UV absorbance after ultrafiltration
Procedure: The mixture was concentrated to 200 μl in Vivaspin (Sartorious) 5 kDa cut off ultrafiltration device. The retentate was washed with a further 30 mL of PBS and concentrated to 200 μl. In parallel, the same amount (4.5 mg) of bOmCI was incubated with 1.8 ml ultrapure ethanol in 39 mL PBS, then concentrated and washed as described above. The final volume of the concentrated proteins was 200 μl. UV absorption spectra of the proteins were examined using a Nanodrop ND-1000 Spectrophotometer.

[7] = system: LTB4 induced skin reaction; assay: Local skin reaction induced by topical application of LTB4; assay type: in vivo, human
Procedure: Reactions appear after 12 hours and peak at 24-48 hours.
The solutions were then applied to the flexor surface of the forearm and air dried. […] The deposits were occluded under a chamber which was removed after 6 hours. Skin reactions were observed from 12-96 hours.
Solutions were incubated for 10 minutes at room temperature then applied to the flexor surface of the forearm and air dried. […] The deposits were occluded under a chamber which was removed after 6 hours. Skin reactions were observed from 12-96 hours.

[8] = system: immune complex induced lung injury; assay: Immune complex induced lung disease (intranasal anti-Ova antibody); assay type: in vivo, mouse
Procedure: Recombinant OmCI was given at 0, 50, 100 and 250 μg intravenously together with 300 μg Ova containing 0.3% Evans blue (EB). […] MK886 is a leukotriene synthesis inhibitor. MK886 was administered with 300 μg Ova containing 0.3% Evans blue (EB) as a positive control.

Human BLT2 = molecular target: T1, Human BLT2 (Homo sapiens, UniProt Q9NPC1); conditions: cited from earlier work
T1 sequence (Q9NPC1 1-358): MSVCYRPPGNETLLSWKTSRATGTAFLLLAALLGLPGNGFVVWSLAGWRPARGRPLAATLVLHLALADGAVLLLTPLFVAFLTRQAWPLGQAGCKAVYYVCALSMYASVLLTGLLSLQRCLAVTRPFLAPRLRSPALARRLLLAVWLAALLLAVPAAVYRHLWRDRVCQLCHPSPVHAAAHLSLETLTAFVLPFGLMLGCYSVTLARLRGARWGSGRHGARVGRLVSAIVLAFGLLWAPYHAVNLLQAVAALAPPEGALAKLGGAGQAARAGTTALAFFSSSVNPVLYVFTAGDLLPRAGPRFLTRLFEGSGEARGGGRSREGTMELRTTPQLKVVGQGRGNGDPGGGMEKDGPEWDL

[9] = AP conjugate only, data not shown
[10] = Example 5, bOmCI 33×, 16×, 7×, 2× or ovalbumin 15×, 3×, 1× molar excess, forearm (FIG. 12)
[11] = 50 μg intravenous (legend of FIG. 16)
[12] = 100 μg intravenously 15 min prior to intranasal OVA antibody

bOmCI: bacterial expressed OmCI
proportion of 12(S)-HETE bound [1]: 97% | amount of 12(S)-HETE available in solution for antibody binding ([1]; 20 min preincubation with 12500 pg/mL 12(S)-HETE, 41.2 μg protein (FIG. 2)): decreases the amount of 12(S)-HETE available in solution | direct binding of 12(S)-HETE-AP conjugate [1, 9]: not bound directly | effect of prolonged incubation on proportion of 12(S)-HETE bound ([1]; overnight at room temperature (FIG. 4)): does not increase the proportion of 12(S)-HETE bound | binding of TXB2 ([2]; 3333 pg/mL TXB2 (FIG. 6)): does not appear to bind | direct binding of TXB2-AP conjugate [2, 9]: not bound directly | direct binding of cys-LK-AP conjugate ([3]; AP conjugate only): not bound directly | binding of Cys-LKs [3]: does not appear to bind | estimated concentration of LTB4 in solution [4]: 10000 pg/mL | competition of excess 12(S)-HETE with LTB4-AP binding ([5]; 8.24 μg bOmCI (FIG. 10)): does not outcompete | amount of protein that binds approximately 50% of the LTB4-AP ([5]; FIG. 8): 0.33 µg | excess of protein needed to bind 50% of the LTB4-AP ([5]; calculated assuming 100% conjugation efficiency and IC50=1:1 binding): 1200 × | binding to LTB4-AP ([5]; dilution series, 50 μL LTB4-AP, no unlabelled LTB4 (FIG. 8)): dose dependent binding | comparison of LTB4-AP binding by yOmCI and bOmCI [5]: fairly similar | LTB4 bound from solution ([6]; 1:1 molar ratio OmCI:LTB4, flow through of ultrafiltration (FIG. 13A)): all the LTB4 added to initial mixture was bound

Ovalbumin: negative control protein ovalbumin (Mr 45 kDa) [reference compound]
skin reaction induced by 100 ng LTB4 [7, 10]: no effect on lesion formation | lesion formation ([7]; Example 8, negative control protein): no inhibitory effect on lesion formation

yOmCI: yeast expressed OmCI
proportion of 12(S)-HETE bound [1]: roughly 50% | comparison of LTB4-AP binding by yOmCI and bOmCI [5]: fairly similar

OmCI preloaded with LTB4: bOmCI with LTB4 loaded into the binding pocket (example 6)
skin reaction induced by 100 ng LTB4 ([7]; Example 8, 4:1 molar ratio, preloaded protein): did not prevent the skin reaction | inhibitory effect on immune complex induced disease after saturation of the LTB4 binding site ([8]; OmCI preloaded with LTB4 (FIG. 16)): attenuated the inhibitory effect of OmCI although it did not abrogate the response

CCCCC/C=C\C[C@@H](O)/C=C/C=C/C=C\[C@@H](O)CCCC(=O)O [LTB4, leukotriene B4]
lower affinity of BLT2 than BLT1 for LTB4 (Human BLT2): 20 fold

CC(C)c1ccc2c(c1)c(SC(C)(C)C)c(CC(C)(C)C(=O)O)n2Cc1ccc(Cl)cc1 [MK886, reference compound]
microvascular damage and inflammation ([8]; positive control (FIG. 16)): reduced dramatically

OmCI: soft tick derived complement (C) inhibitor of Ornithodoros moubata, SEQ ID NO: 2 / 3; binds C5 and LTB4
skin reaction induced by 100 ng LTB4 [7, 10]: completely ablated | skin reaction induced by 100 ng LTB4 ([7]; Example 8, 4:1 to 1:1 molar ratio (FIG. 15)): ablated the skin reaction | lesion formation compared to LTB4 alone ([7]; Example 8, molar ratios 0.5:1 and less): no effect on lesion formation | LTB4 binding stoichiometry and affinity ([6]; conclusion from examples 6 and 7): binds to a single molecule of LTB4 with high affinity | dose dependence of effect ([8]; 0, 50, 100 and 250 μg intravenously, data not shown): dose dependent | neutrophil recruitment in the lung [8, 11]: reduces neutrophil recruitment in the lung | vascular permeability and protein exudation [8, 11]: decreases vascular permeability and protein exudation | neutrophil recruitment in the lung [8, 12]: reduced neutrophil recruitment in the lung | pulmonary microvascular damage and protein exudations in the bronchoalveolar space [8, 12]: reduced protein exudations
